Our source for the EC50 values is patent US9708332B2, “Respiratory syncytial virus inhibitors” (MEDIVIR AB, priority 2013, dated 2017).

The structures appear in SMILES notation.

This test has as its system RSV (Long). Put plainly: RSV cytopathic effect (CPE)-based viral replication assay in HEp-2 cells. The note with it: human respiratory syncytial virus, 72 h; HEp-2 cells infected with RSV Long at MOI 0.015, 3 days, cell viability by CellTiter-Glo; read-out: Ec50 (nM) Example A. Here is the method:
Compounds of the invention are initially tested in a cytopathic effect (CPE)-based viral replication assay using immortalized cells and a laboratory strain of RSV (Long). This assay evaluates the ability of a compound to inhibit viral replication. Assay plates are prepared by seeding 2,500 HEp-2 cells (ATCC) per well of a 384-well black clear-bottom plate (Greiner Bio-One) in 20 μL of assay media (defined as DMEM supplemented with 2% heat-inactivated fetal bovine serum and 1% Penicillin/Streptomycin). Assay plates are incubated overnight at 37° C. in an incubator containing 5% CO2. The following day, a 10-point serial dilution of test compound is prepared in DMSO. Compounds are subsequently diluted with assay media and 20 μL of diluted compound (containing 1.5% DMSO) is transferred to an assay plate for evaluation of antiviral activity. For the CPE assay, cells are infected at a MOI of 0.015 using 20 μL of RSV Long (ATCC) diluted in assay media. The DMSO concentration is constant throughout the assay plate, including the negative and positive controls. The assay plate is incubated for 3 days at 37° C. in an incubator containing 5% CO2. Cell viability is evaluated with the addition of 10 μL of CellTiter-Glo (ProMega). Luminescence is measured using an EnVision plate reader (Perkin Elmer). EC50 values are calculated using the raw data from the CPE assays, respectively.
In the case of `O=c1n(Cc2nc(OCC3CCOC3)c3cc(Cl)ccc3n2)c2cnccc2n1C1CC1` (stereo not shown) [compound 1054], the EC50 was 600 nM.

On to `O=c1n(Cc2nc(OC3CCOC3)c3ccccc3n2)c2ncccc2n1C1CC1` (stereo not shown) [compound 1221], for which the EC50 came out at 170 nM.

For `O=c1c2ccccc2n2nccc2n1Cc1nc(OC2CCOC2)c2ccccc2n1` (stereo not shown) [compound 1198], the half-maximal effective concentration (EC50) was 21 nM.

Regarding `Cc1cc2n(Cc3nc(N(C)Cc4cnn(C)c4)c4ccccc4n3)c(=O)c3ccncc3n2n1` [compound 1212], the EC50 worked out at 15 nM.

With `O=c1n(Cc2nc(OCC3CCOC3)c3cccc(Cl)c3n2)c2cnccc2n1C1CC1` (stereo not shown) [compound 1090], the EC50 stood at 710 nM.

In the case of `O=c1n(Cc2nc(OC3CCOC3)c3ccc(Cl)cc3n2)c2c[n+]([O-])ccc2n1C1CC1` (stereo not shown) [Compound 1104], the concentration for a half-maximal effect (EC50) turned out to be 130 nM.

`CN(CC1CCOC1)c1nc(Cn2ccc3nccn3c2=O)nc2ccccc12` (stereo not shown) [compound 1119]: the half-maximal effective concentration (EC50) was 7700 nM.

As to `Cc1cc2n(Cc3nc(NC(C)c4cnn(C)c4)c4ccccc4n3)c(=O)c3ccccc3n2n1` (stereo not shown) [compound 1180], the concentration giving a half-maximal response (EC50) was found to be 1400 nM.

Turning to `COc1cccc2c(=O)n(Cc3nc(N(C)Cc4cnn(C)c4)c4ccccc4n3)c3cc(C)nn3c12` [compound 1215], the EC50 is 31 nM.

Consider `CN(Cc1cnn(C)c1)c1nc(Cn2c(=O)c3ccccc3n3ncc(C#N)c23)nc2ccccc12` [compound 1179], for which the EC50 came out at 400 nM.

For the compound `Cc1cc2n(Cc3nc(OCC4CCOC4)c4cc(C#N)ccc4n3)c(=O)c3ccccc3n2n1` (stereo not shown) [Compound 1074], the concentration giving a half-maximal response (EC50) came to 2.8 nM.

Turning to `Cc1ncc2n(Cc3nc(OC4CCOC4)c4ccccc4n3)c(=O)c3ccccc3n12` (stereo not shown) [compound 1097], the EC50 stood at 93 nM.

For `O=c1n(Cc2nc(OCC3CCOC3)c3ccc(Cl)cc3n2)c2cnccc2n1C1CCS(=O)(=O)C1` (stereo not shown) [compound 1096], the EC50 came out at 300 nM.

For `Cc1c(C#N)c(=O)n(Cc2nc(OC3CCOC3)c3ccccc3n2)c2ccccc12` (stereo not shown) [compound 1204], the EC50 stood at 79 nM.

Turning to `Cc1ccc2c(OCC3CCOC3)nc(Cn3c(=O)n(C4CC4)c4ccncc43)nc2c1` (stereo not shown) [Compound 1034], the EC50 was found to be 28 nM.

For the compound `CN(Cc1cnn(C)c1)c1nc(Cn2c(=O)n(C3CC3)c3ccccc32)nc2ccccc12` [compound 1005], the EC50 stood at 970 nM.

For the compound `O=c1n(Cc2nc(OC3CCOC3)c3ccc(Cl)cc3n2)c2cnccc2n1C1CC1` (stereo not shown) [compound 1061], the 50% effective concentration (EC50) turned out to be 29 nM.

Regarding `O=c1n(Cc2nc(OCCCO)c3ccccc3n2)c2cnccc2n1C1CC1` [Compound 1002], the EC50 worked out at 260 nM.

Turning to `Cc1ncn2c3ccccc3c(=O)n(Cc3nc(OC4CCOC4)c4ccccc4n3)c12` (stereo not shown) [compound 1100], the EC50 stood at 25 nM.

Take `O=c1n(Cc2nc(OC3COC3)c3ccc(Cl)cc3n2)c2cnccc2n1C1CC1` [compound 1068]: the EC50 was found to be 63 nM.

With `O=c1n(Cc2nc(OCC3CCOC3)c3ccccc3n2)c2ncccc2n1C1CC1` (stereo not shown) [compound 1020], the concentration for a half-maximal effect (EC50) came to 450 nM.

Consider `O=c1n(Cc2nc(OCC3CCOC3)c3ccc(Cl)cc3n2)c2cnccc2n1C1CCOCC1` (stereo not shown) [compound 1095], for which the EC50 was 380 nM.

On to `Cc1cc2n(Cc3nc(OCC4CCOC4)c4ccccc4n3)c(=O)c3ccccc3n2n1` (stereo not shown) [compound 1070], for which the half-maximal effective concentration (EC50) was determined as 16 nM.

`CS(=O)(=O)CCCOc1nc(Cn2c(=O)n(C3CC3)c3ccncc32)nc2cc(Cl)ccc12` [Compound 1065]: the EC50 is 43 nM.

For `Cn1cc(-c2ccc3c(OCC4CCOC4)nc(Cn4c(=O)n(C5CC5)c5ccncc54)nc3c2)cn1` (stereo not shown) [Compound 1043], the EC50 is 6400 nM.

In the case of `Cc1cc2n(Cc3nc(OC4CCOC4)c4ccccc4n3)c(=O)c3ccccc3n2n1` (stereo not shown) [compound 1205], the EC50 stood at 6.6 nM.

On to `O=C1CCCN1CCOc1nc(Cn2c(=O)n(C3CC3)c3ccncc32)nc2cc(Br)ccc12` [compound 1081], for which the EC50 stood at 280 nM.

For the compound `CCc1cc2n(Cc3nc(OC4CCOC4)c4ccccc4n3)c(=O)c3ccccc3n2n1` (stereo not shown) [compound 1199], the EC50 was 8.8 nM.

For the compound `O=c1n(Cc2nc(OCC3CCOC3)c3ccccc3n2)c2cccnc2n1C1CC1` (stereo not shown) [compound 1222], the EC50 was determined as 490 nM.

On to `O=c1n(Cc2nc(OCCCO)c3ccccc3n2)c2ccccc2n1C1CC1` [Compound 1069], for which the concentration for a half-maximal effect (EC50) turned out to be 1200 nM.

`O=c1n(Cc2nc(CCCCO)c3ccccc3n2)c2ccccc2n1C1CC1` [Compound 1016]: the EC50 worked out at 1100 nM.

Take `Cc1cc(CN(C)c2nc(Cn3c(=O)n(C4CC4)c4ccncc43)nc3ccccc23)on1` [compound 1163]: the EC50 was determined as 590 nM.

With `CN(Cc1cnn(C)c1)c1nc(Cn2c(=O)c3ccccc3n3cncc23)nc2ccccc12` [compound 1183], the half-maximal effective concentration (EC50) was 470 nM.

On to `Cn1c(=O)n(Cc2nc(OCC3CCOC3)c3ccccc3n2)c2ccccc21` (stereo not shown) [compound 1142], for which the EC50 came to 480 nM.

Turning to `N#Cc1cc2ccccc2n(Cc2nc(OC3CCOC3)c3ccccc3n2)c1=O` (stereo not shown) [compound 1108], the concentration giving a half-maximal response (EC50) amounted to 1600 nM.

Turning to `Cc1cc2n(Cc3nc(N(C)CC4CCOC4)c4ccccc4n3)c(=O)c3ccccc3n2n1` (stereo not shown) [compound 1140], the half-maximal effective concentration (EC50) stood at 26 nM.

Take `Cc1cc2n(Cc3nc(N(C)Cc4cnn(C)c4)c4ccccc4n3)c(=O)c3ccccc3n2n1` [compound 1027]: the half-maximal effective concentration (EC50) is 10 nM.

As for `Cc1cc(CN(C)c2nc(Cn3c(=O)c4ccccc4c4ccccc43)nc3ccccc23)on1` [compound 1168], the EC50 is 280 nM.

`O=c1n(Cc2nc(OC3CCOC3)c3ccccc3n2)c2cnccc2n1C1CC1` (stereo not shown) [compound 1206]: the concentration giving a half-maximal response (EC50) was 110 nM.

As to `Cc1cc2n(Cc3nc(OCC4CCOC4)c4ccc(Br)cc4n3)c(=O)c3ccccc3n2n1` (stereo not shown) [compound 1047], the EC50 stood at 1700 nM.

Take `O=c1n(Cc2nc(OC3CCOC3)c3ccc(Cl)cc3n2)c2ncccc2n1C1CC1` (stereo not shown) [compound 1219]: the half-maximal effective concentration (EC50) was determined as 200 nM.

For `O=c1n(Cc2nc(OCC3CCOC3)c3c(Cl)cccc3n2)c2cnccc2n1C1CC1` (stereo not shown) [compound 1085], the EC50 was 280 nM.

On to `O=c1c2ccccc2n2nncc2n1Cc1nc(OC2CCOC2)c2ccccc2n1` (stereo not shown) [compound 1200], for which the EC50 was determined as 29 nM.

On to `N#Cc1ccc2nc(Cn3c(=O)n(C4CC4)c4ccncc43)nc(OCC3CCOC3)c2c1` (stereo not shown) [Compound 1036], for which the EC50 amounted to 140 nM.

In the case of `Cc1cc(CN(C)c2nc(CN3C(=O)N(C4CC4)Cc4ccccc43)nc3ccccc23)on1` [compound 1164], the concentration giving a half-maximal response (EC50) came out at 1000 nM.

With `O=c1n(Cc2nc(OC3CCOC3)c3ccc(Cl)cc3n2)c2cccnc2n1C1CC1` (stereo not shown) [compound 1218], the EC50 was found to be 380 nM.

The term EC50 denotes the concentration giving half of the maximal effect.
